In brackets after ≈: the same amount, converted by molar mass. Read-outs that look alike come from different tables or passages of the source.
What was measured:
Escherichia coli = experiment: In vitro antimicrobial activity, microplate dilution procedure (MIC); assay type: cell-based
Description: (§1) The in vitro antimicrobial activity of the compounds of the invention was determined by a microplate dilution procedure. […] Resulting suspensions were diluted 1/10 in the appropriate broth or used undiluted for the inoculum. […] The compounds were then serially diluted two-fold in DMSO to give a working stock concentration range plate. The last row of wells was left compound-free receiving only DMSO to serve as a growth control. Five mcl from each well of the working stock plate was transferred to corresponding wells of a separate plate containing 95 mcl/well of the appropriate broth. All dilutions were made with either an automated dilutor or manually. […] Plates were incubated as described above and read for visible growth. The minimal inhibitory concentration (MIC: expressed in mcg/ml) of each compound tested against each test microorganism was determined as the lowest concentration of compound which prevents visible microbial growth.

Micrococcus luteus = experiment: as above; assay type: cell-based
Description: as §1

Pseudomonas aeruginosa = experiment: as above; assay type: cell-based; details: read-out: PA MIC
Description: as §1

Staphylococcus aureus = experiment: as above; assay type: cell-based; details: for activity relative to compound R / activity relative to compounds P and Q: from Table I; for MIC: Staphylococcus aureus
Description: as §1

Streptococcus faecalis = experiment: as above; assay type: cell-based; details: Enterococcus faecalis
Description: as §1

Streptococcus pneumoniae = experiment: as above; assay type: cell-based
Description: as §1

Bacteroides fragilis = experiment: In vitro antimicrobial activity, microplate dilution procedure (MIC), anaerobic; assay type: cell-based
Description: as §1

E. coli = experiment: In vivo antibacterial activity in infected mice (protective dose); details: Mouse, one-half hour postinfection, deaths recorded for seven days; for E. coli (PD₅₀) sc: subcutaneous
Description: (§2) The in vivo antibacterial activity of the compounds of the invention was determined in female mice, 18-20 grams each. Aqueous solutions of the compounds to be tested were prepared by dissolving the free acid form in dilute sodium hydroxide and diluting the solution with distilled water to the desired concentration. Cultures of E. coli were grown in brain heart infusion broth, and the mice were inoculated intraperitoneally with 0.5 ml of the bacterial test inoculum suspended in saline. Cultures of Staph. aureus were thawed from frozen pooled stocks and mixed with 5% mucin. A 0.5 ml preparation was used to infect mice by i.p. inoculation. The mice were medicated subcutaneously (sc) or orally (po) with 0.5 ml of the test compound solution one-half hour postinfection. Deaths were recorded daily for seven days. Fifty percent protective dose values (PD₅₀) were calculated using probit analysis.

Staph. aureus = experiment: as above; details: for Staph. aureus (PD₅₀) po / Staph. aureus (PD₅₀) sc: Mouse, one-half hour postinfection, deaths recorded for seven days; for Staph. aureus (PD₅₀) sc: subcutaneous; for activity relative to the prior art compounds: Staph. aureus, in vivo mouse, from Table II
Description: as §2

[1] = Serum levels in monkeys after oral dosing; assay type: in vivo; details: 25 mg/kg oral dosing; for half-life: monkey
Description: In monkeys, compounds A and C gave high and prolonged serum levels after 25 mg/kg oral dosing.

[2] = Streptococcus faecalis, read-out: SF MIC
[3] = Strep. pneumoniae, read-out: MIC

SMILES: Cc1cc(-c2c(F)c(F)c3c(=O)c(C(=O)O)cn(C4CC4)c3c2F)cc(C)n1 [B, 1-Cyclopropyl-7-(2,6-dimethyl-4-pyridinyl)-5,6,8-trifluoro-1,4-dihydro-4-oxo-3-quinolinecarboxylic acid]
- MIC (Escherichia coli; read-out: EC MIC): 0.125 µg/mL (≈ 0.322 µM)
- MIC (Micrococcus luteus; read-out: ML MIC): 0.5 µg/mL (≈ 1.29 µM)
- MIC (Pseudomonas aeruginosa): 8 µg/mL (≈ 20.6 µM)
- activity relative to compound R (Staphylococcus aureus; Staph. aureus): four times as active
- activity relative to compounds P and Q (Staphylococcus aureus; Staph. aureus): thirty times as active
- MIC (Staphylococcus aureus; read-out: SA MIC): 0.008 µg/mL (≈ 0.0206 µM)
- MIC (Streptococcus faecalis; [2]): 0.06 µg/mL (≈ 0.155 µM)
- MIC (Streptococcus pneumoniae; read-out: SP MIC): 0.03 µg/mL (≈ 0.0773 µM)
- MIC (Bacteroides fragilis; anaerobic, read-out: BF MIC): 0.5 µg/mL (≈ 1.29 µM)
- E. coli (PD₅₀) po (E. coli): 10.8 mg/kg
- E. coli (PD₅₀) sc (E. coli): 8.9 mg/kg
- Staph. aureus (PD₅₀) po (Staph. aureus): 0.14 mg/kg
- Staph. aureus (PD₅₀) sc (Staph. aureus): 0.08 mg/kg
- activity relative to the prior art compounds (Staph. aureus): 9-30 times

SMILES: Cc1cc(-c2c(F)cc3c(=O)c(C(=O)O)cn(C4CC4)c3c2F)cc(C)n1 [C, 1-Cyclopropyl-6,8-difluoro-7-(2,6-dimethyl-4-pyridinyl)-1,4-dihydro-4-oxo-3-quinolinecarboxylic acid]
- MIC (Escherichia coli; read-out: EC MIC): 0.06 µg/mL (≈ 0.162 µM)
- MIC (Micrococcus luteus; read-out: ML MIC): 0.25 µg/mL (≈ 0.675 µM)
- MIC (Pseudomonas aeruginosa): 4 µg/mL (≈ 10.8 µM)
- activity relative to compound R (Staphylococcus aureus; Staph. aureus): four times as active
- activity relative to compounds P and Q (Staphylococcus aureus; Staph. aureus): thirty times as active
- MIC (Staphylococcus aureus; read-out: SA MIC): 0.008 µg/mL (≈ 0.0216 µM)
- MIC (Streptococcus faecalis; [2]): 0.06 µg/mL (≈ 0.162 µM)
- MIC (Streptococcus pneumoniae; read-out: SP MIC): 0.016 µg/mL (≈ 0.0432 µM)
- MIC (Bacteroides fragilis; anaerobic, read-out: BF MIC): 0.125 µg/mL (≈ 0.338 µM)
- E. coli (PD₅₀) po (E. coli): 5.7 mg/kg
- E. coli (PD₅₀) sc (E. coli): 6.1 mg/kg
- Staph. aureus (PD₅₀) po (Staph. aureus): 0.09 mg/kg
- Staph. aureus (PD₅₀) sc (Staph. aureus): 0.06 mg/kg
- activity relative to the prior art compounds (Staph. aureus): 9-30 times
- maximum concentration [1]: 34 µg/mL
- time of maximum concentration [1]: 5.5 h
- half-life [1]: 20 h

SMILES: Cc1cc(-c2cc3c(cc2F)c(=O)c(C(=O)O)cn3C2CC2)cc(C)n1 [Compound A, 1-Cyclopropyl-7-(2,6-dimethyl-4-pyridinyl)-6-fluoro-1,4-dihydro-4-oxo-3-quinolinecarboxylic acid]
- MIC (Escherichia coli; read-out: EC MIC): 0.03 µg/mL (≈ 0.0851 µM)
- MIC (Micrococcus luteus; read-out: ML MIC): 0.5 µg/mL (≈ 1.42 µM)
- MIC (Pseudomonas aeruginosa): 2 µg/mL (≈ 5.68 µM)
- activity relative to compound R (Staphylococcus aureus; Staph. aureus): four times as active
- activity relative to compounds P and Q (Staphylococcus aureus; Staph. aureus): thirty times as active
- MIC (Staphylococcus aureus; read-out: SA MIC): 0.008 µg/mL (≈ 0.0227 µM)
- MIC (Streptococcus faecalis; [2]): 0.06 µg/mL (≈ 0.17 µM)
- MIC (Streptococcus pneumoniae; read-out: SP MIC): 0.03 µg/mL (≈ 0.0851 µM)
- MIC (Bacteroides fragilis; anaerobic, read-out: BF MIC): 0.5 µg/mL (≈ 1.42 µM)
- E. coli (PD₅₀) po (E. coli): 3.8 mg/kg
- E. coli (PD₅₀) sc (E. coli): 3.1 mg/kg
- Staph. aureus (PD₅₀) po (Staph. aureus): 0.20 mg/kg
- Staph. aureus (PD₅₀) sc (Staph. aureus): 0.08 mg/kg
- activity relative to the prior art compounds (Staph. aureus): 9-30 times
- maximum concentration [1]: 13 µg/mL
- time of maximum concentration [1]: 7 h
- half-life [1]: 13 h

SMILES: Cc1cc(-c2c(F)c(Sc3ccccc3)c3c(=O)c(C(=O)O)cn(C4CC4)c3c2F)cc(C)n1 [Example 6(c), 1-cyclopropyl-7-(2,6-dimethyl-4-pyridinyl)-6,8-difluoro-5-(phenylthio)-1,4-dihydro-4-oxo-3-quinolinecarboxylic acid]
- MIC (Micrococcus luteus; M. luteus, read-out: MIC): 16 µg/mL (≈ 33.4 µM)
- MIC (Staphylococcus aureus; Staph. aureus, read-out: MIC): 1 µg/mL (≈ 2.09 µM)
- MIC (Streptococcus faecalis; Strep. faecalis, read-out: MIC): 16 µg/mL (≈ 33.4 µM)
- MIC (Streptococcus pneumoniae; [3]): 2 µg/mL (≈ 4.18 µM)
- MIC (Bacteroides fragilis; B. fragilis, read-out: MIC): 16 µg/mL (≈ 33.4 µM)

SMILES: Cc1cc(-c2c(F)cc3c(=O)c(C(=O)O)cn(C4CC4)c3c2SCc2ccccc2)cc(C)n1 [Example 7, 1-cyclopropyl-7-(2,6-dimethyl-4-pyridinyl)-6-fluoro-1,4-dihydro-4-oxo-8-(benzylthio)-3-quinolinecarboxylic acid]
- MIC (Escherichia coli; E. coli, read-out: MIC): 4 µg/mL (≈ 8.43 µM)
- MIC (Micrococcus luteus; M. luteus, read-out: MIC): 64 µg/mL (≈ 135 µM)
- MIC (Staphylococcus aureus; Staph. aureus, read-out: MIC): < 0.125 µg/mL
- MIC (Streptococcus faecalis; Strep. faecalis, read-out: MIC): 2 µg/mL (≈ 4.21 µM)
- MIC (Streptococcus pneumoniae; [3]): 2 µg/mL (≈ 4.21 µM)
- MIC (Bacteroides fragilis; B. fragilis, read-out: MIC): 64 µg/mL (≈ 135 µM)

SMILES: CCn1cc(C(=O)O)c(=O)c2ccc(-c3cc(C)nc(C)c3)cc21 [P, 7-(2,6-Dimethyl-4-pyridinyl)-1-ethyl-1,4-dihydro-4-oxo-3-quinolinecarboxylic acid, reference compound]
- MIC (Escherichia coli; read-out: EC MIC): 0.25 µg/mL (≈ 0.776 µM)
- MIC (Micrococcus luteus; read-out: ML MIC): 8 µg/mL (≈ 24.8 µM)
- MIC (Pseudomonas aeruginosa): 32 µg/mL (≈ 99.3 µM)
- MIC (Staphylococcus aureus; read-out: SA MIC): 0.25 µg/mL (≈ 0.776 µM)
- MIC (Streptococcus faecalis; [2]): 1 µg/mL (≈ 3.1 µM)
- MIC (Streptococcus pneumoniae; read-out: SP MIC): 2 µg/mL (≈ 6.2 µM)
- MIC (Bacteroides fragilis; anaerobic, read-out: BF MIC): 16 µg/mL (≈ 49.6 µM)
- E. coli (PD₅₀) po (E. coli): 17.9 mg/kg
- E. coli (PD₅₀) sc (E. coli): 13.5 mg/kg
- Staph. aureus (PD₅₀) po (Staph. aureus): 3.8 mg/kg
- Staph. aureus (PD₅₀) sc (Staph. aureus): 2.37 mg/kg

SMILES: O=C(O)c1cn(C2CC2)c2cc(N3CCNCC3)c(F)cc2c1=O [Q, 1-Cyclopropyl-6-fluoro-7-(1-piperazinyl)-1,4-dihydro-4-oxo-3-quinolinecarboxylic acid, reference compound]
- MIC (Escherichia coli; read-out: EC MIC): 0.004 µg/mL (≈ 0.0121 µM)
- MIC (Micrococcus luteus; read-out: ML MIC): 2 µg/mL (≈ 6.04 µM)
- MIC (Pseudomonas aeruginosa): 0.125 µg/mL (≈ 0.377 µM)
- MIC (Staphylococcus aureus; read-out: SA MIC): 0.25 µg/mL (≈ 0.754 µM)
- MIC (Streptococcus faecalis; [2]): 0.5 µg/mL (≈ 1.51 µM)
- MIC (Streptococcus pneumoniae; read-out: SP MIC): 0.25 µg/mL (≈ 0.754 µM)
- MIC (Bacteroides fragilis; anaerobic, read-out: BF MIC): 2 µg/mL (≈ 6.04 µM)

SMILES: CCn1cc(C(=O)O)c(=O)c2cc(F)c(-c3cc(C)nc(C)c3)cc21 [R, 7-(2,6-Dimethyl-4-pyridinyl)-1-ethyl-6-fluoro-1,4-dihydro-4-oxo-3-quinolinecarboxylic acid, reference compound]
- MIC (Escherichia coli; read-out: EC MIC): 0.06 µg/mL (≈ 0.176 µM)
- MIC (Micrococcus luteus; read-out: ML MIC): 0.5 µg/mL (≈ 1.47 µM)
- MIC (Pseudomonas aeruginosa): 4 µg/mL (≈ 11.8 µM)
- MIC (Staphylococcus aureus; read-out: SA MIC): 0.03 µg/mL (≈ 0.0881 µM)
- MIC (Streptococcus faecalis; [2]): 0.25 µg/mL (≈ 0.735 µM)
- MIC (Streptococcus pneumoniae; read-out: SP MIC): 0.25 µg/mL (≈ 0.735 µM)
- MIC (Bacteroides fragilis; anaerobic, read-out: BF MIC): 2 µg/mL (≈ 5.88 µM)
- E. coli (PD₅₀) po (E. coli): 8.24 mg/kg
- E. coli (PD₅₀) sc (E. coli): 5.39 mg/kg
- Staph. aureus (PD₅₀) po (Staph. aureus): 1.38 mg/kg
- Staph. aureus (PD₅₀) sc (Staph. aureus): 0.71 mg/kg

From patent publication EP0309789A1, “4-Oxo-3-quinolinecarboxylic acids useful as antibacterial agents and preparation thereof” (STERLING WINTHROP INC., priority 1987, dated 1989)
